The subject of experiment [1] is ES2 cells. Description: Wound healing (cell migration) assay, ES2 cells. The class given is cell-based, human. The procedure: (§1) Cells were seeded in 96 IncuCyte® ImageLock plates (20×10^3 cells per well) for 24 hours, to a near confluency of 95%, before the addition of increasing concentrations of compound. After a further 24 hours, wells were scratched using the IncuCyte® 96-well WoundMaker Tool, and the cells cultured for an additional 48 hours using the IncuCyte® S3 Live-Cell Analysis System (Essen BioScience). The plate was imaged at increments of 120 minutes for a period of 48 hours, and then analyzed for relative wound healing.

In the next experiment the target is T1, Igf2bp1 RRM12 di-domain (Homo sapiens, UniProt Q9NZI8).
T1 construct: RRM12 (M1-P188); 6xHis (N, cleaved yes); made in house; host or cells: E. coli BL21(DE3)
T1 sequence (Q9NZI8 1-188): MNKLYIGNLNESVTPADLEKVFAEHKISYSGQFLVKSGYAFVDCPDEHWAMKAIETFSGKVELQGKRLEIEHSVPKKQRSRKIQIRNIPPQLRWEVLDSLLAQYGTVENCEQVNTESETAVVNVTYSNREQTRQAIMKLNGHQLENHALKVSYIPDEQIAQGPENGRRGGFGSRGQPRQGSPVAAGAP
Description: MST binding to Igf2bp1 di-domain RRM12. The procedure:
Recombinant full-length Igf2bp1 protein was labelled with RED-tris-NTA dye using a Monolith NT His-Tag Labelling Kit (NanoTemper) while RRM12, KH12 and KH34 di-domain peptides were labelled using the Protein Labeling Kit RED NHS 2nd generation (NanoTemper). Labelled proteins were spun at 15,000 g for 5 min to eliminate aggregates. All samples were 2× labelled protein mix of Igf2bp1 (200 nM) in PBST and were combined (1:1) with serial dilutions of compound or Kras6 RNA in binding buffer (10 mMTris pH=7.5, 100 mM NaCl, 0.1 mM EDTA, 0.06% IPEGAL, 0.02 μg/μL tRNA, 2 mM DTT, 0.1 μg/μL heparin) in final volume of 20 μL, room temperature for 15 min. Samples were then loaded into standard capillaries (NanoTemper) and read in the Monolith NT.115 scanner (NanoTemper) using the red filter with reading conditions of 95% LED power and 40% MST power, 5 sec fluorescence before, 30 sec MST on, 5 sec fluorescence after and 25 sec delay between samples. Results were analyzed using the MO Control software (NanoTemper) for curve fitting to KD.

Experiment [2] relates to ES2 cells. Description: Cell proliferation assay (Incucyte), ES2 cells. The class given is cell-based, human. Set-up: dose or concentration left out as unconfirmed. As to conditions: ES2, up. The procedure: ES2, H1299 and HEK293 cells were seeded in a 96 well plate (5×10^3 cells per well) for 24 hours before adding the compound at increasing concentrations. After an additional 24 hours, the plate was incubated in an IncuCyte® S3 Live-Cell Analysis System (Essen BioScience). The wells were filmed for 72 hours, and then analyzed for proliferation rate Using IncuCyte® S3 Live-Cell Analysis System (Essen BioScience)

Experiment [3] concerns LKR-M cells transfected with full length human Igf2bp1-GFP. Description: Wound healing assay, LKR-M cells expressing human Igf2bp1-GFP. Format: cell-based, mouse. Details: dose or concentration left out as unconfirmed. The note with it: 7773 vs DMSO. The procedure: as §1
Another experiment has as its system cMyc mRNA. The experiment can be described thus: cMyc mRNA levels in different cell lines. Format: cell-based. The procedure: Primers were calibrated for several Igf2bp1 RNA targets (Table 3): […]
Cells were grown for 12 hours in 12 well plates prior to incubation with the compound at different concentrations for an additional 12 or 24 hours. Total RNA was then extracted using EZ-RNA total RNA isolation kit (Biological Industries) and cDNA prepared from the RNA using the First Strand cDNA Synthesis kit (Quanta bio). Real time PCR was performed with Fast SYBR Green Master Mix (Thermo Fisher Scientific), and cDNA expression analyzed with the Bio-Rad CFX Manager 3.1.

The target of a further experiment is T2, Igf2bp2 (Homo sapiens, UniProt Q9Y6M1).
T2 construct: His tag (C); made in house; host or cells: E. coli BL21(DE3)
T2 sequence (Q9Y6M1 whole entry, species assumed): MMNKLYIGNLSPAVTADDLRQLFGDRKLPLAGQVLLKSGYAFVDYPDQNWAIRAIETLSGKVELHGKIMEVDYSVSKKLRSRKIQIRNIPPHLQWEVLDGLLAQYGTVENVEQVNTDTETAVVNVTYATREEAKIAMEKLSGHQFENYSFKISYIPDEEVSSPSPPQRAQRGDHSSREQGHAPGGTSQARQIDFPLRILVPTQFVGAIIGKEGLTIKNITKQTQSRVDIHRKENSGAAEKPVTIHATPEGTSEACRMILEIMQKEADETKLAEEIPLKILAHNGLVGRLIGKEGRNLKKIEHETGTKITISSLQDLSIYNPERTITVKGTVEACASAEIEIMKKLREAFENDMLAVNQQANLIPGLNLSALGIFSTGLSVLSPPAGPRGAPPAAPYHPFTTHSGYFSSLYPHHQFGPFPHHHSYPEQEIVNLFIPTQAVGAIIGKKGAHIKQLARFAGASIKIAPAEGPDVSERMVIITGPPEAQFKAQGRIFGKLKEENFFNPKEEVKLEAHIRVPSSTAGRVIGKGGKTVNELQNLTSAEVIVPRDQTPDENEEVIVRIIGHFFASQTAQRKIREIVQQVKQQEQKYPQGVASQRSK
Description: MST binding to Igf2bp2. The note with it: even at concentrations that almost saturate binding to Igf2bp1.

For the next experiment, the target named is La (Homo sapiens, UniProt P05455). Description: MST binding to control RNA binding protein La.
Chain of La (P05455 whole entry): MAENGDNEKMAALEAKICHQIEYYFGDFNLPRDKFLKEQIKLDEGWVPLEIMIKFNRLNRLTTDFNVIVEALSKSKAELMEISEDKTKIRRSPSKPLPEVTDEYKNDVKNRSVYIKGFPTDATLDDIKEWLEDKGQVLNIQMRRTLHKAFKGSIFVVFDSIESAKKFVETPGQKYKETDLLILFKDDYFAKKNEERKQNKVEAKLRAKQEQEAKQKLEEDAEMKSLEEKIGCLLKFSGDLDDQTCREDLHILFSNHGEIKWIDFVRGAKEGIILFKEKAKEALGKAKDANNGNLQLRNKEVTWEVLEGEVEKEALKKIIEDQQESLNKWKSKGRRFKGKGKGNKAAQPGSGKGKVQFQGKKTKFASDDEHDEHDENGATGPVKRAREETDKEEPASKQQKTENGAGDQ
For a further experiment, the target named is La binding to Bcl2 RNA (Homo sapiens, UniProt P05455). The experiment can be described thus: FP counter assay, La binding to Bcl2 RNA.
Chain of La binding to Bcl2 RNA (P05455 whole entry): as above
Another experiment relates to HEK293 cells. The experiment can be described thus: Wound healing (cell migration) assay, HEK293 cells. The class given is cell-based, human. The procedure: as §1
For experiment [4], the system named is Kras protein in H1299 cells. Description: Western blot of Kras protein in H1299 cells. The class given is cell-based, human. The note with it: H1299, 10 and 20 μM 7773, 48 hours. The procedure: Western blots were performed as previously described. For fluorescent westerns, cell lysates were prepared with phosphatase inhibitors (β-Glycerophosphate and Sodium orthovanadate) and a protease inhibitor (cOmplete™, Mini Protease Inhibitor Cocktail, Roche 04693124001), membranes were read using a Li-Core Odyssey laser scanner, and results analyzed using Image Studio Lite software.
The following primary antibodies were used: mouse anti-total ERK (p44/42 MAPK (Erk1/2) L34F12 Cell Signaling 4696s), mouse anti-Kras (CPTC-KRAS4B-2, DSHB) rabbit anti-dpERK, (p44/42 MAPK, Cell Signaling 4370), rabbit anti-alpha/beta tubulin (Cell Signaling 2148), goat anti-rabbit IgG-HRP (Jackson), goat anti-mouse IgG-HRP (Jackson). Secondary antibodies for fluorescent westerns: donkey anti-mouse 800 (Rockland 610-732-124), goat anti-rabbit 680 (Molecular Probes A21076).
A general note: In western blotting, separated proteins are transferred to a membrane and probed.

We go through 1 compound from US20240025886A1, “INHIBITORS OF IGF2BP1-RNA BINDING” (YISSUM RESEARCH DEVELOPMENT COMPANY OF THE HEBREW …, priority 2020, published 2024).

By Kd is commonly meant the equilibrium constant for the complex coming apart. Usually IC50 stands for the concentration that gives 50% inhibition. As to `O=C(c1ccc(Cn2cnnn2)cc1)N1CCCC(Nc2ccc3c(c2)OCO3)C1` (stereo not shown) [Compound 7773], the “Inhibition of wound healing” value with ES2 cells [1] (ES2, 5 mM 7773) is reported as “discernible inhibition”; in the experiment on ES2 cells [1] (ES2, 20 mM 7773), “strongly inhibited”; with HEK293 cells (HEK293, 5 mM 7773), “discernible inhibition”; in the experiment on HEK293 cells (HEK293, 20 mM 7773), “strongly inhibited”. The affinity at Igf2bp1 RRM12 di-domain, expressed as Kd, was 1.5 µM. Besides, the Cell proliferation result in the experiment on ES2 cells [2] was “remarkably unaffected”. For the same compound, the “Inhibition of Igf2bp1-GFP enhanced wound healing” value in experiment [3] is listed as “significantly inhibited”. The “Reduction of cMyc mRNA levels” value in the experiment with cMyc mRNA is on record as 50-60%. The “Binding to Igf2bp2 (MST)” value at Igf2bp2 is listed as “did not significantly bind”. Further, the “Binding to La (MST)” value on La was “no binding”. Further, the “Effect on control RBP (La) binding to its target (Bcl2 RNA)” value on La binding to Bcl2 RNA (FP) is “almost no effect”. Also, the IC50 on La binding to Bcl2 RNA (FP control, n=3, read-out: IC50 for inhibition of La binding to Bcl2 RNA) is above 100 µM. Besides, the Kras protein expression result in [4] is “dose-dependent reduction”.
